According to patent US20210114983A1, “Cathepsin C inhibitors” (National Institute of Biological Sciences, Beijing, priority 2018, published 2021):

What was measured:
rhCatC (Cathepsin C) = rhCatC (Cathepsin C) (Homo sapiens, UniProt P53634); assay: In Vitro CatC Enzyme Assay; type: biochemical; settings: read-out: Cat C Enzy (Cathepsin C inhibitory activity, IC50)
Experimental: In Vitro CatC Enzyme Assay
The CatC enzyme assay was performed in black 384-well plate. Firstly, rhCatC (440 nM) was activated by rhCatL (300 nM) in activation buffer (25 mM MES, 5 mM DTT, pH 6.0) at room temperature for 2 h and then activated rhCatC was diluted to 4.4 nM in assay buffer (25 mM MES, 50 mM NaCl, 5 mM DTT, 0.01% (v/v) Triton X100, pH 6.0), 14 μL activated rhCatC and 1 μL compound in 10% DMSO or 10% DMSO were incubated at room temperature for 3 h, and 5 μL substrate (Gly-Phe-AFC) was added to final concentration of 100 μM. After 60 min reaction, the product of the reaction was measured in the Enspire plate reader using Ex λ400 nm and Em λ505 nm for AFC. A standard irreversible CatC inhibitor 10 by AstraZeneca (J. Med. Chem. 2014, 57, 2357-2367) was used as an inhibitor control in the assay.

CatC [1] = molecular target: T1, CatC (Rattus norvegicus, UniProt P80067); assay: In vivo study, CatC activity in rat bone marrow lysates; settings: dose dependent
T1 construct: bone marrow cells were immediately extracted from femurs and tibias; from tissue; host or cells: Sprague Dawley rat bone marrow cell lysate
T1 sequence (P80067 25-134 limits assumed): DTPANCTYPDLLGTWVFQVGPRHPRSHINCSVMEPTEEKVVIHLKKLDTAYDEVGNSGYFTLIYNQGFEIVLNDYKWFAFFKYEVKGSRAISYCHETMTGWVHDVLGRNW
T1 sequence (P80067 230-393 limits assumed): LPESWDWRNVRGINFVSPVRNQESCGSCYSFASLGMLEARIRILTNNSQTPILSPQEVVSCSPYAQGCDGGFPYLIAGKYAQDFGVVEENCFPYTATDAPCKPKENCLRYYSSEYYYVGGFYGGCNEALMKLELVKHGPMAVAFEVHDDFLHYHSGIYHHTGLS
T1 sequence (P80067 394-462 limits assumed): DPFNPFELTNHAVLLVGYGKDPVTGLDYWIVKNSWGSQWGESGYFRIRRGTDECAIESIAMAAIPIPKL
Experimental: (§1) C57BL/6 mice (20-25 g) were randomly divided into 4 groups (n=10) and kept at 5 animals per cage. Compound 31 was administered orally twice daily at 6.7, 20, 60 mg kg-1 day-1 for 6 days. The matched vehicle controls (0.5% Methocel™, 0.1% Tween 80 in 100 mM citrate buffer, pH 3) were also administered twice daily for 6 days. Mice were weighed and the dose adjusted accordingly on each day. Sprague Dawley (280-300 g) were conducted by intraperitoneal injection twice daily at 1, 5, 20 mg kg-1 day-1 for 8 days. Blood was sampled through eye puncture at 14 h intervals after the end of the administration. Then mice were terminated and bone marrow cells were immediately extracted from femurs and tibias using ice cold RPMI 1640 medium. Blood cells and bone marrow cells were lysed according to the protocols previously described 8 with some modifications. […]
(§2) The analysis was performed as previously described. […] Synthetic peptide substrates (Gly-Phe-AFC(SMBiochemicals) for CatC, methoxysuccinyl-Ala-Ala-Pro-Val-AMC (Sigma) for NE, minobenzoyl-Val-Ala-Asp-Cys-Ala-Asp-Gin-ethylenediamine 2,4-dinitrophenyl (Peptide Synthetics) for Pr3, and N-succinyl-Ala-Ala-Pro-Phe-ONA (Sigma) for CatG) were added before plates were read at fluorescence or absorbance. Assay kinetics was monitored for up to 90 min. Data were analyzed using GraphPad Prism (GraphPad Software, Inc., San Diego, Calif., USA).

NE [2] = assay: In vivo study, NE activity in rat bone marrow lysates; settings: dose dependent
Experimental: as §1, §2

CatG [3] = assay: In vivo study, CatG activity in rat bone marrow lysates; settings: dose dependent
Experimental: as §1, §2

CatC [4] = molecular target: T2, CatC (Mus musculus, UniProt P97821); assay: In vivo study, CatC activity in mice bone marrow and blood lysates; settings: dose dependent
T2 construct: Blood cells and bone marrow cells were lysed; from tissue; host or cells: C57BL/6 mouse bone marrow and blood cell lysates
T2 sequence (P97821 25-134 limits assumed): as the sequence (P80067 25-134 limits assumed) above, with H23S, P24S, H27D, P35A, I42V, V54L, Y59H, K86R, S88H, R89T counted along it
T2 sequence (P97821 231-393 limits assumed): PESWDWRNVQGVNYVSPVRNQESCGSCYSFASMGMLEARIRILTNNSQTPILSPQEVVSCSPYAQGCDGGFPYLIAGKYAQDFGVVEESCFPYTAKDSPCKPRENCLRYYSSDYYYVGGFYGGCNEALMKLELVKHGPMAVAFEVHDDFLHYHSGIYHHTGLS
T2 sequence (P97821 394-462 limits assumed): as the sequence (P80067 394-462 limits assumed) above, with K20R, L26I, D27E, V31I, Q38N, M61V counted along it
Experimental: as §1, §2

NE [5] = assay: In vivo study, NE activity in mice bone marrow and blood lysates; settings: dose dependent
Experimental: as §1, §2

Pr3 = assay: In vivo study, Pr3 activity in mice bone marrow and blood lysates; settings: dose dependent
Experimental: as §1, §2

CatG [6] = assay: In vivo study, CatG activity in mice bone marrow and blood lysates; settings: dose dependent
Experimental: as §1, §2

acute pancreatitis = assay: Caerulein-induced acute pancreatitis; type: in vivo, C57BL/6 mice; settings: orally twice daily at 20 mg/kg for 6 days
Experimental: Induction of Pancreatitis. The acute pancreatitis was induced by hourly intraperitoneal injections of caerulein (50 μg/kg/body weight) for up to 8 h, 36 C57BL/6 mice (20-25 g) were randomly divided into 4 groups (n=5). Compound 28 were administered orally twice daily at 20 mg/kg for 6 days. The matched vehicle controls (0.5% Methocel™, 0.1% Tween 80 in 100 mM citrate buffer, pH 3) were also administered twice daily for 6 days. On the 6th day, mice were induced pancreatitis after compound administration and after the last caerulein injection, mice were administered compound. The sham-treated group was performed with the same as vehicle controls except that saline was administered instead of caerulein. Mice were killed at 1 h after the last caerulein injection. Tissue was harvested immediately after sacrificing the animals. A portion of pancreas samples were frozen in liquid nitrogen for preparation of homogenate. For histology, pancreas was fixed in 4.5% formalin for paraffin embedding and stained with hematoxylin and eosin. Serum samples were prepared and stored at −20 C. […] Compound 28 were administered orally twice daily at 20 mg/kg. The activity inhibition data of the compound-treated groups are shown as the percentage activity of a sham mean (set to 100% activity). Values are means±SEM. […]

Chain of rhCatC (Cathepsin C) (P53634 25-134 limits assumed): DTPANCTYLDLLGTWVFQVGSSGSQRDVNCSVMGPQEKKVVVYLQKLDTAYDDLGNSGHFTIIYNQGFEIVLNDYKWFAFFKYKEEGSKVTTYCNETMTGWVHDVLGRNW
Chain of rhCatC (Cathepsin C) (P53634 231-394 limits assumed): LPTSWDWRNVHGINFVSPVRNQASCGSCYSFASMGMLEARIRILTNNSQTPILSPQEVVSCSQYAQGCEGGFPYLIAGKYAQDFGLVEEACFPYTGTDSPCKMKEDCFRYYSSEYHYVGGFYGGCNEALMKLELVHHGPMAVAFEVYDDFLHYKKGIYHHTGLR
Chain of rhCatC (Cathepsin C) (P53634 395-463 limits assumed): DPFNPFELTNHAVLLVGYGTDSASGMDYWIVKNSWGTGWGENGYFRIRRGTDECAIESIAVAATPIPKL

- IC50 (rhCatC (Cathepsin C)): 3 to 300 nM
- activation of CatC (CatC [1]): inhibited the activation
- activation of CatC (CatC [4]; mice blood): inhibited the activation
- activation of CatC (CatC [4]; mice bone marrow): inhibited the activation
SMILES: C=CC(=O)Nc1cc(Oc2nc(Nc3ccc(N4CCN(C)CC4)cc3OC)ccc2N2CCCCC2)ccc1C [Compound 28, N-(5-((6-((2-methoxy-4-(4-methylpiperazin-1-yl)phenyl)amino)-3-(piperidin-1-yl)pyridin-2-yl)oxy)-2-methylphenyl)acrylamide]
- activation of NE (NE [2]): inhibited the activation
- activation of CatG (CatG [3]): inhibited the activation
- activation of NE (NE [5]; mice blood): inhibited the activation
- activation of NE (NE [5]; mice bone marrow): inhibited the activation
- activation of Pr3 (Pr3; mice blood): inhibited the activation
- activation of Pr3 (Pr3; mice bone marrow): inhibited the activation
- activation of CatG (CatG [6]; mice blood): inhibited the activation
- activation of CatG (CatG [6]; mice bone marrow): inhibited the activation
- severity of acute pancreatitis (acute pancreatitis): reduced the severity of acute pancreatitis
